Patent US20260285850A1, “SUBSTITUTED OXAZOLIDINONES AND IMIDAZOLINONES AS HERBICIDES” (FMC CORPORATION, priority 2023, published 2026)

Columns and labels:
Type in all cases: in vivo
soybean (Glycine max) [1] = assay: Test A postemergence application, visual injury rating 0-100; details: 10 days
How it was run: (§1)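 Visual injury ratings (0, no effect; 100, complete control) were assigned relative to untreated plants 10 days after treatment. Test chemicals, formulated with a surfactant-containing non-phytotoxic solvent, were applied in loam-sand soil either as a directed soil spray before emergence or to emerged plants, and plants were kept in a greenhouse.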

[2] = system: horseweed (Erigeron canadensis); assay: as above; details: Postemergence, 125 g ai/ha, 10 days; 0 is no effect, 100 is complete control
How it was run: as §1

[3] = system: blackgrass (Alopecurus myosuroides); assay: as above; details: 10 days
How it was run: as §1

[4] = system: green foxtail (Setaria viridis); assay: as above; details: 10 days
How it was run: as §1

[5] = system: barnyardgrass (Echinochloa crus-galli); assay: as above; details: 10 days
How it was run: as §1

[6] = system: oat, wild (wild oat, Avena fatua); assay: as above; details: 10 days
How it was run: as §1

corn (Zea mays) [7] = assay: as above; details: 10 days
How it was run: as §1

[8] = system: palmer (palmer amaranth, palmer pigweed, Amaranthus palmeri); assay: as above; details: 10 days
How it was run: as §1

[9] = system: wheat (Triticum aestivum); assay: as above; details: 10 days
How it was run: as §1

[10] = system: galium (catchweed bedstraw, Galium aparine); assay: as above; details: 10 days
How it was run: as §1

[11] = system: ragweed (common ragweed, Ambrosia artemisiifolia); assay: as above; details: 10 days
How it was run: as §1

kochia (Bassia scoparia) [12] = assay: as above; details: 10 days
How it was run: as §1

[13] = system: ryegrass, Italian (italian ryegrass, Lolium multiflorum); assay: as above; details: 10 days
How it was run: as §1

soybean (Glycine max) [14] = assay: Test A preemergence soil spray, visual injury rating 0-100; details: 10 days, 0 = no effect, 100 = complete control
How it was run: as §1

[15] = system: blackgrass (Alopecurus myosuroides); assay: as above; details: 10 days, 0 = no effect, 100 = complete control
How it was run: as §1

[16] = system: green foxtail (Setaria viridis); assay: as above; details: 10 days, 0 = no effect, 100 = complete control
How it was run: as §1

[17] = system: barnyardgrass (Echinochloa crus-galli); assay: as above; details: 10 days, 0 = no effect, 100 = complete control
How it was run: as §1

[18] = system: oat, wild (wild oat, Avena fatua); assay: as above; details: 10 days, 0 = no effect, 100 = complete control
How it was run: as §1

corn (Zea mays) [19] = assay: as above; details: 10 days, 0 = no effect, 100 = complete control
How it was run: as §1

[20] = system: palmer (palmer amaranth, palmer pigweed, Amaranthus palmeri); assay: as above; details: 10 days, 0 = no effect, 100 = complete control
How it was run: as §1

[21] = system: wheat (Triticum aestivum); assay: as above; details: 10 days, 0 = no effect, 100 = complete control
How it was run: as §1

[22] = system: ragweed (common ragweed, Ambrosia artemisiifolia); assay: as above; details: 10 days, 0 = no effect, 100 = complete control
How it was run: as §1

kochia (Bassia scoparia) [23] = assay: as above; details: 10 days, 0 = no effect, 100 = complete control
How it was run: as §1

[24] = system: ryegrass, Italian (italian ryegrass, Lolium multiflorum); assay: as above; details: 10 days, 0 = no effect, 100 = complete control
How it was run: as §1

[25] = system: barnyardgrass (Echinochloa crusgalli); assay: Test B flooded paddy test, visual plant response rating 0-100; details: 250 g ai/ha, Flood, applied to paddy water, evaluated after 13 days
How it was run: (§2)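 Visual scores versus untreated controls were recorded 13 days after treatment of greenhouse-held plants. At the 2-leaf stage, pots were flooded 3 cm above the soil surface and compounds added straight to the water.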

rice (Oryza sativa) = assay: as above; details: 250 g ai/ha, Flood, applied to paddy water, evaluated after 13 days
How it was run: as §2

[26] = system: sedge, umbrella (small-flower umbrella sedge, Cyperus difformis); assay: as above; details: 250 g ai/ha, Flood, applied to paddy water, evaluated after 13 days
How it was run: as §2

[27] = system: ducksalad (Heteranthera limosa); assay: as above; details: 250 g ai/ha, Flood, applied to paddy water, evaluated after 13 days
How it was run: as §2

[28] = 31 g ai/ha, postemergence, 0 = no effect, 100 = complete control
[29] = Postemergence, 125 g ai/ha, 0 is no effect, 100 is complete control

## CC(C)OC(=O)C1CCC(NC(=O)C2(C)CN(c3cc(F)cc(Cl)c3)C(=O)O2)C1 (stereo not drawn) [Compound 2]
Soybean (Glycine max) [1]; [28]
  Soybean plant response rating (0-100): 20
Soybean (Glycine max) [1]; [29]
  Soybean plant response rating (0 to 100 scale): 70
[2]
  Horseweed plant response rating (0 to 100 scale): 0
[3]; [28]
  Blackgrass plant response rating (0-100): 60
[3]; [29]
  Blackgrass plant response rating (0 to 100 scale): 70
[4]; [28]
  Foxtail, Green plant response rating (0-100): 0
[4]; [29]
  Foxtail, Green plant response rating (0 to 100 scale): 90
[5]; [28]
  Barnyardgrass plant response rating (0-100): 50
[5]; [29]
  Barnyardgrass plant response rating (0 to 100 scale): 100
[6]; [28]
  Oat, Wild plant response rating (0-100): 70
[6]; [29]
  Oat, Wild plant response rating (0 to 100 scale): 90
Corn (Zea mays) [7]; [28]
  Corn plant response rating (0-100): 40
Corn (Zea mays) [7]; [29]
  Corn plant response rating (0 to 100 scale): 100
[8]; [28]
  Amaranth, Palmer plant response rating (0-100): 0
[8]; [29]
  Amaranth, Palmer / Pigweed, Palmer plant response rating (0 to 100 scale): 50
[9]; [28]
  Wheat plant response rating (0-100): 80
[9]; [29]
  Wheat plant response rating (0 to 100 scale): 90
[10]; [28]
  Galium plant response rating (0-100): 60
[10]; [29]
  Galium plant response rating (0 to 100 scale): 90
[11]; [28]
  Ragweed plant response rating (0-100): 20
[11]; [29]
  Ragweed plant response rating (0 to 100 scale): 50
Kochia (Bassia scoparia) [12]; [28]
  Kochia plant response rating (0-100): 0
Kochia (Bassia scoparia) [12]; [29]
  Kochia plant response rating (0 to 100 scale): 80
[13]; [28]
  Ryegrass, Italian plant response rating (0-100): 50
[13]; [29]
  Ryegrass, Italian plant response rating (0 to 100 scale): 90
Soybean (Glycine max) [14]; 31 g ai/ha
  Soybean plant response rating (0-100): 0
Soybean (Glycine max) [14]; 125 g ai/ha
  Soybean plant response rating (0 to 100 scale): 20
[15]; 31 g ai/ha
  Blackgrass plant response rating (0-100): 0
[15]; 125 g ai/ha
  Blackgrass plant response rating (0 to 100 scale): 50
[16]; 31 g ai/ha
  Foxtail, Green plant response rating (0-100): 0
[16]; 125 g ai/ha
  Foxtail, Green plant response rating (0 to 100 scale): 90
[17]; 31 g ai/ha
  Barnyardgrass plant response rating (0-100): 10
[17]; 125 g ai/ha
  Barnyardgrass plant response rating (0 to 100 scale): 90
[18]; 31 g ai/ha
  Oat, Wild plant response rating (0-100): 0
[18]; 125 g ai/ha
  Oat, Wild plant response rating (0 to 100 scale): 70
Corn (Zea mays) [19]; 31 g ai/ha
  Corn plant response rating (0-100): 20
Corn (Zea mays) [19]; 125 g ai/ha
  Corn plant response rating (0 to 100 scale): 70
[20]; 31 g ai/ha
  Amaranth, Palmer plant response rating (0-100): 20
[20]; 125 g ai/ha
  Amaranth, Palmer plant response rating (0 to 100 scale): 80
[21]; 31 g ai/ha
  Wheat plant response rating (0-100): 50
[21]; 125 g ai/ha
  Wheat plant response rating (0 to 100 scale): 90
[22]; 31 g ai/ha
  Ragweed plant response rating (0-100): 30
[22]; 125 g ai/ha
  Ragweed plant response rating (0 to 100 scale): 0
Kochia (Bassia scoparia) [23]; 31 g ai/ha
  Kochia plant response rating (0-100): 0
Kochia (Bassia scoparia) [23]; 125 g ai/ha
  Kochia plant response rating (0 to 100 scale): 70
[24]; 31 g ai/ha
  Ryegrass, Italian plant response rating (0-100): 20
[24]; 125 g ai/ha
  Ryegrass, Italian plant response rating (0 to 100 scale): 80
[25]
  Plant response rating, Barnyardgrass (0 to 100 scale, 0 is no effect and 100 is complete control): 95
Rice (Oryza sativa)
  Plant response rating, Rice (0 to 100 scale, 0 is no effect and 100 is complete control): 20
[26]
  Plant response rating, Sedge, Umbrella (0 to 100 scale, 0 is no effect and 100 is complete control): 75
[27]
  Plant response rating, Ducksalad (0 to 100 scale, 0 is no effect and 100 is complete control): 65
